Assays:
[1] = test system: S. cerevisiae wild-type and cna, cph1, fpr1 deletion strains; experiment: Transcript array comparison of drug-exposed wild-type and deletion mutant yeast, microarray with approximately 5900 ORFs; type: cell-based, Saccharomyces cerevisiae
Protocol: (§1) The RNA was converted into cDNA while simultaneously incorporating fluorescent nucleotides, according to standard protocols as described above. The cDNAs were hybridized to either a microarray having 140 sites with relevant S. cerevisiae ORF sequences, or to a microarray having sites with 5900 sites with nearly all known S. cerevisiae ORF sequences. The intensities of the two fluors used to label the RNAs to be compared were measured at each site of the array. The ratio of these intensities is referred to as the expression ratio.
(§2) To produce deletion mutant transcript arrays, RNA was prepared from a publicly available S. cerevisiae strain that contains genetic disruptions in both catalytic subunits of calcineurin (hereinafter, the cna mutant) and its isogeneic with the parental wild-type strain. These two strains were grown in parallel, harvested and processed in an identical manner as described above. As above, the cDNAs were hybridized to the array and the intensities of the two fluors (expression ratio) were measured at each site of the array. Thereby a cna mutant transcript array was produced.
(§3) Selected pairs of the transcript arrays were compared by computing a correlation coefficient between the pairs as previously described. As is known in the art, higher values of the correlation coefficient represent a greater degree of similarity between the pair of arrays. As indicated subsequently, in some cases expression ratios were directly used for this computation, while in other cases the log10 function of the expression ratios were used.
In this table, columns two and three list the transcript arrays that are compared (labeled “First Transcript Array” and “Second Transcript Array”). Their correlation coefficient is presented in the fourth column (labeled “Corr. Coef.”). The number of standard deviations represented by the correlation coefficient (in terms of the expected correlation coefficient representing one Gaussian standard deviation) is presented in the fifth column (labeled “Std. Dev.”). The expected standard deviation depends on the data set size according to known statistical procedures. The number of standard deviations above the expected mean can be used to determine the statistical significance of the correlation coefficient, as is known in the art.
The transcript arrays measured in Tables 1 and 2 were similarly produced by the previously described methods.

[2] = test system: S. cerevisiae wild-type and cna, cph1, fpr1 deletion strains; experiment: Transcript array comparison of drug-exposed wild-type and deletion mutant yeast, microarray with 140 selected ORF sites; type: cell-based, Saccharomyces cerevisiae; conditions: Table 3, 140 ORF sites
Protocol: as §1, §2
Deletion mutant transcript arrays were also produced in similar manners for disruptions to the genes cph1 (coding the major cyclophilin in yeast) and fpr1 (coding the major FK506-binding protein).
as §3
This table, in contrast to Table 1 and 2 (which were created from microarrays with approximately 5900 ORF sites) was created from microarray having sites with 140 S. cerevisiae selected ORF sites thought to be relevant to the primary action of these drugs. Correlation coefficients were computed using log10 of the raw expression ratios.

[3] = Table 1, log10 of expression ratios, 1 mg/ml FK506 or 30 mg/ml CSA

With `C=CC[C@@H]1/C=C(\C)C[C@H](C)C[C@H](OC)[C@H]2O[C@@](O)(C(=O)C(=O)N3CCCC[C@H]3C(=O)O[C@H](/C(C)=C/[C@@H]3CC[C@@H](O)[C@H](OC)C3)[C@H](C)[C@@H](O)CC1=O)[C@H](C)C[C@@H]2OC` [FK506] the “Corr. Coef., wild-type drug transcript array vs fpr1 mutant transcript array” value ([1]; Table 1, log10 of expression ratios, 1 mg/ml FK506) was −0.011, the “Corr. Coef., wild-type FK506 drug transcript array vs wild-type CSA drug transcript array” value ([1]; Table 1, log10 of expression ratios, 1 mg/ml FK506, 30 mg/ml CSA, three generations) was 0.334 and the “Corr. Coef., wild-type drug transcript array vs cna mutant drug transcript array (same drug)” value [1, 3] was 0.065. For the same compound, the “Corr. Coef., wild-type drug transcript array vs cna mutant transcript array” value [1, 3] was 0.605, the “Corr. Coef., wild-type drug transcript array vs cph1 mutant drug transcript array (same drug)” value [1, 3] was 0.767 and the “Corr. Coef., wild-type drug transcript array vs fpr1 mutant drug transcript array (same drug)” value [1, 3] was −0.085. For the same compound, the “Corr. Coef., wild-type FK506 drug transcript array vs cna mutant FK506 drug transcript array” value ([1]; Table 2) was 0.052, the “Corr. Coef., wild-type FK506 drug transcript array vs cna mutant transcript array” value ([1]; Table 2) was 0.245 and the “Corr. Coef., wild-type FK506 drug transcript array vs cph1 mutant FK506 drug transcript array” value ([1]; Table 2) was 0.328. For the same compound, the “Corr. Coef., wild-type FK506 drug transcript array vs fpr1 mutant FK506 drug transcript array” value ([1]; Table 2) was 0.136, the “Corr. Coef., wild-type FK506 drug transcript array vs wild-type CSA drug transcript array” value ([1]; Table 2) was 0.243 and the “Corr. Coef., cna mutant FK506 drug transcript array vs cna mutant CSA drug transcript array” value [2] was 0.20. The “Corr. Coef., cph1 mutant FK506 drug transcript array vs cph1 mutant CSA drug transcript array” value [2] was 0.15, the “Corr. Coef., cph1 mutant FK506 drug transcript array vs fpr1 mutant CSA drug transcript array” value [2] was 0.71 and the “Corr. Coef., fpr1 mutant FK506 drug transcript array vs cph1 mutant CSA drug transcript array” value [2] was 0.40. For the same compound, the “Corr. Coef., fpr1 mutant FK506 drug transcript array vs fpr1 mutant CSA drug transcript array” value [2] was −0.01, the “Corr. Coef., wild-type FK506 drug transcript array vs wild-type CSA drug transcript array” value ([2]; log10 of raw expression ratios) was 0.67 and the “Corr. Coef., wild-type drug transcript array vs cna mutant drug transcript array (same drug)” value ([2]; log10 of raw expression ratios) was −0.12. The “Corr. Coef., wild-type drug transcript array vs cna mutant transcript array” value ([2]; log10 of raw expression ratios) was 0.61, the “Corr. Coef., wild-type drug transcript array vs cph1 mutant drug transcript array (same drug)” value ([2]; log10 of raw expression ratios) was 0.70 and the “Corr. Coef., wild-type drug transcript array vs fpr1 mutant drug transcript array (same drug)” value ([2]; log10 of raw expression ratios) was 0.04. The “Corr. Coef., wild-type vs wild-type transcript array vs wild-type drug transcript array” value ([2]; negative control comparison) was −0.05.
